Measured values from ChEMBL document CHEMBL1201862, “PubChem BioAssay data set” (2004).
Active and inactive are the calls of the source.

How the values were obtained:
[1] = target: Melanin-concentrating hormone receptor 1 (Homo sapiens, UniProt Q99705); experiment: Late-stage fluorescence-based counterscreen for antagonists of the G-protein coupled receptor 7 (GPR7): cell-based dose response assay to identify antagonists of the melanin-concentrating hormone receptor 1 (MCHR1) Set 5.; format: functional
[2] = target: T1, Luciferin 4-monooxygenase (Photinus pyralis, UniProt P08659); experiment: inhibition of purified Photinus pyralis luciferase – biochemical, dry powder samples, plate reader, dose response (AID 588451)
[3] = test system: H4; experiment: Amyloid Precursor 5' UTR neuroblastoma cell reporter line Measured in Cell-Based System Using Plate Reader - 2078-04_Inhibitor_Dose_DryPowder_Activity. [Related pubchem assays (depositor defined):AID488894]; format: functional; settings: Homo sapiens
[4] = Luminescence Cell-Based Dose Confirmation HTS to Identify Inhibitors of Platelet Dense Granule Release. [Related pubchem assays: 1663 (Primary HTS), 1678 (Summary of Project)]; format: functional
[5] = target: T1, Luciferin 4-monooxygenase; experiment: inhibition of purified Photinus pyralis luciferase – biochemical, luminescence, dose response (AID 1891)
[6] = general cell-killing toxicity readout – plate reader, dry powder samples, cytotoxicity control for PAX8 inhibitor project, dose response (AID 743021); format: functional, cell-based
[7] = target: Paired box protein Pax-8 (Homo sapiens, UniProt Q06710); experiment: PAX8 transcriptional activity inhibition in RMG-I – RMG-I cells, luciferase, cherry-pick, dose response (AID 687027); format: functional, cell-based;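 further: luciferase reporter driven by Pax8 target thyroperoxidase promoter measured by SteadyGlo luminescence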
[8] = target: Cyclin-dependent kinase 5/CDK5 activator 1 (Homo sapiens, UniProt Q00535); experiment: blockade of human CDK5 activity – biochemical, cherry-picked samples, set 2, dose response (AID 504545)
[9] = test system: H4; experiment: Inhibitors of Prion Protein 5' UTR mRNA Measured in Cell-Based System Using Plate Reader - 2078-01_Inhibitor_Dose_DryPowder_Activity. [Related pubchem assays (depositor defined):AID488894]; format: functional; settings: Homo sapiens
[10] = target: Protein disulfide-isomerase (Homo sapiens, UniProt P07237); experiment: inhibition of PDI-driven insulin aggregation – biochemical, turbidity, absorbance, cherry-picked samples, dose response (AID 602350); format: functional
[11] = target: ELAV-like protein 1 (Homo sapiens, UniProt Q15717); experiment: Identify HuR specific inhibitors.; format: functional
[12] = target: Protein S100-A4 (Homo sapiens, UniProt P26447); experiment: human S100A4 peptide interaction inhibition curves – biochemical, fluorescence polarization, cherry-picked hits, dose response (AID 687001); format: functional
[13] = target: Nonstructural protein 1 (Influenza A virus, UniProt Q194T2); format: functional, Influenza A virus (A/California/07/2009(H1N1))
[14] = target: Serine/threonine-protein kinase Chk1 (Homo sapiens, UniProt O14757); format: functional;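 further: measured as one member of a kinome-wide kinase profiling panel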
[15] = target: Casein kinase I isoform alpha (Homo sapiens, UniProt P48729); format: functional
[16] = target: Dual specificity mitogen-activated protein kinase kinase 2 (Homo sapiens, UniProt P36507); experiment: Navigating the Kinome. Panel member name: MAP2K2; format: functional
[17] = target: Serine/threonine-protein kinase Nek2 (Homo sapiens, UniProt P51955); format: functional
[18] = target: Cyclin-dependent kinase 7 (Homo sapiens, UniProt P50613); format: functional;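 further: value comes from a kinome-wide kinase profiling panel in which CDK7 is one member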
[19] = target: Serine/threonine-protein kinase D3 (Homo sapiens, UniProt O94806); format: functional;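 further: determined within a kinase panel screen, with PRKCN as the panel member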
[20] = target: Platelet-derived growth factor receptor alpha (Homo sapiens, UniProt P16234); experiment: Navigating the Kinome. Panel member name: PDGFRA; format: functional
[21] = target: Activated CDC42 kinase 1 (Homo sapiens, UniProt Q07912); experiment: Navigating the Kinome. Panel member name: ACK1; format: functional
[22] = target: Rho-associated protein kinase 1 (Homo sapiens, UniProt Q13464); format: functional;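 further: measured within a broad kinome-wide panel profiling many kinases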
[23] = target: Fibroblast growth factor receptor 1 (Homo sapiens, UniProt P11362); format: functional
[24] = target: Mitogen-activated protein kinase kinase kinase kinase 2 (Homo sapiens, UniProt Q12851); format: functional;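 further: measured as one member of a kinome-wide kinase panel, with MAP4K2 as the panel entry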
[25] = target: Hepatocyte growth factor receptor (Homo sapiens, UniProt P08581); format: functional;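 further: kinase panel profiling across the kinome, with MET as the panel member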
[26] = target: Dual specificity mitogen-activated protein kinase kinase 1 (Homo sapiens, UniProt Q02750); experiment: Navigating the Kinome. Panel member name: MAP2K1; format: functional
[27] = target: Dual specificity tyrosine-phosphorylation-regulated kinase 1A (Homo sapiens, UniProt Q13627); format: functional;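 further: measured against DYRK1A as one member of a broad kinome profiling panel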
[28] = target: Cyclin-dependent kinase 8 (Homo sapiens, UniProt P49336); experiment: Navigating the Kinome. Panel member name: CDK8; format: functional
[29] = target: Dual specificity tyrosine-phosphorylation-regulated kinase 1B (Homo sapiens, UniProt Q9Y463); experiment: Navigating the Kinome. Panel member name: DYRK1B; format: functional
[30] = target: Aurora kinase A (Homo sapiens, UniProt O14965); format: functional;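 further: value from the Navigating the Kinome kinase panel profiling, panel entry STK6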
[31] = target: Serine/threonine-protein kinase pim-1 (Homo sapiens, UniProt P11309); format: functional
[32] = target: Proto-oncogene tyrosine-protein kinase receptor Ret (Homo sapiens, UniProt P07949); format: functional;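 further: measured within a kinome-wide profiling panel, RET as the panel member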
[33] = target: ALK tyrosine kinase receptor (Homo sapiens, UniProt Q9UM73); format: functional;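 further: ALK tested as one member of a kinase panel screen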
[34] = target: Tyrosine-protein kinase JAK2 (Homo sapiens, UniProt O60674); format: functional;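 further: JAK2 tested as one member of a kinase panel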
[35] = target: LIM domain kinase 1 (Homo sapiens, UniProt P53667); experiment: Navigating the Kinome. Panel member name: LIMK1; format: functional
[36] = target: Tyrosine-protein kinase ABL1 (Homo sapiens, UniProt P00519); format: functional
[37] = target: Glycogen synthase kinase-3 alpha (Homo sapiens, UniProt P49840); format: functional;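 further: GSK3A result taken from a broad kinome-wide kinase panel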
[38] = target: Leucine-rich repeat serine/threonine-protein kinase 2 (Homo sapiens, UniProt Q5S007); format: functional;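 further: value from a broad kinome-wide panel profiling study in which LRRK2 was one of the kinases tested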
[39] = target: Serine/threonine-protein kinase TBK1 (Homo sapiens, UniProt Q9UHD2); experiment: Navigating the Kinome. Panel member name: TBK1; format: functional
[40] = target: Cyclin-dependent kinase 19 (Homo sapiens, UniProt Q9BWU1); experiment: Navigating the Kinome. Panel member name: CDC2L6; format: functional
[41] = target: Macrophage-stimulating protein receptor (Homo sapiens, UniProt Q04912); experiment: Navigating the Kinome. Panel member name: MST1R; format: functional
[42] = target: cAMP-dependent protein kinase catalytic subunit alpha (Homo sapiens, UniProt P17612); format: functional
[43] = target: BDNF/NT-3 growth factors receptor (Homo sapiens, UniProt Q16620); format: functional;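 further: NTRK2 measured as one member of a broad kinome-wide kinase profiling panel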
[44] = target: Leukocyte tyrosine kinase receptor (Homo sapiens, UniProt P29376); experiment: Navigating the Kinome. Panel member name: LTK; format: functional
[45] = target: Serine/threonine-protein kinase PAK 4 (Homo sapiens, UniProt O96013); format: functional;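 further: value obtained within a kinome profiling panel in which PAK4 was one of the panel members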
[46] = target: Inhibitor of nuclear factor kappa-B kinase subunit epsilon (Homo sapiens, UniProt Q14164); experiment: Navigating the Kinome. Panel member name: IKBKE; format: functional
[47] = target: Serine/threonine-protein kinase TAO1 (Homo sapiens, UniProt Q7L7X3); format: functional
[48] = target: cAMP-dependent protein kinase catalytic subunit PRKX (Homo sapiens, UniProt P51817); format: functional
[49] = target: Aurora kinase B (Homo sapiens, UniProt Q96GD4); format: functional
[50] = target: Cyclin-dependent kinase 9 (Homo sapiens, UniProt P50750); format: functional;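 further: value from the CDK9 entry of a kinome-spanning kinase panel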
[51] = target: Mitogen-activated protein kinase kinase kinase kinase 4 (Homo sapiens, UniProt O95819); format: functional
[52] = target: 5'-AMP-activated protein kinase catalytic subunit alpha-1 (Homo sapiens, UniProt Q13131); format: functional
[53] = target: Death-associated protein kinase 3 (Homo sapiens, UniProt O43293); format: functional;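 further: measured as one member of a kinome-wide profiling panel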
[54] = target: Dual specificity protein kinase CLK2 (Homo sapiens, UniProt P49760); format: functional
[55] = target: Tyrosine-protein kinase receptor TYRO3 (Homo sapiens, UniProt Q06418); format: functional;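 further: TYRO3 value obtained as one member of a kinome-wide profiling panel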
[56] = target: Macrophage colony-stimulating factor 1 receptor (Homo sapiens, UniProt P07333); format: functional;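 further: value comes from the Navigating the Kinome screening panel, CSF1R member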
[57] = target: Dual specificity protein kinase CLK4 (Homo sapiens, UniProt Q9HAZ1); format: functional
[58] = target: Activin receptor type-1 (Homo sapiens, UniProt Q04771); experiment: Navigating the Kinome. Panel member name: ACVR1; format: functional
[59] = target: Vascular endothelial growth factor receptor 1 (Homo sapiens, UniProt P17948); format: functional;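 further: measured within a kinome-wide profiling panel, FLT1 as the panel member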
[60] = target: Protein kinase C theta type (Homo sapiens, UniProt Q04759); experiment: Navigating the Kinome. Panel member name: PRKCQ; format: functional
[61] = target: Calcium/calmodulin-dependent protein kinase type II subunit alpha (Homo sapiens, UniProt Q9UQM7); experiment: Navigating the Kinome. Panel member name: CAMK2A; format: functional
[62] = target: Mitogen-activated protein kinase 8 (Homo sapiens, UniProt P45983); format: functional;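 further: value comes from one member of a kinome-wide kinase profiling panel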
[63] = target: Vascular endothelial growth factor receptor 2 (Homo sapiens, UniProt P35968); format: functional
[64] = target: Glycogen synthase kinase-3 beta (Homo sapiens, UniProt P49841); format: functional;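 further: value comes from a broad kinome profiling panel, with GSK3B as the panel member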

T1 sequence (P08659 whole entry): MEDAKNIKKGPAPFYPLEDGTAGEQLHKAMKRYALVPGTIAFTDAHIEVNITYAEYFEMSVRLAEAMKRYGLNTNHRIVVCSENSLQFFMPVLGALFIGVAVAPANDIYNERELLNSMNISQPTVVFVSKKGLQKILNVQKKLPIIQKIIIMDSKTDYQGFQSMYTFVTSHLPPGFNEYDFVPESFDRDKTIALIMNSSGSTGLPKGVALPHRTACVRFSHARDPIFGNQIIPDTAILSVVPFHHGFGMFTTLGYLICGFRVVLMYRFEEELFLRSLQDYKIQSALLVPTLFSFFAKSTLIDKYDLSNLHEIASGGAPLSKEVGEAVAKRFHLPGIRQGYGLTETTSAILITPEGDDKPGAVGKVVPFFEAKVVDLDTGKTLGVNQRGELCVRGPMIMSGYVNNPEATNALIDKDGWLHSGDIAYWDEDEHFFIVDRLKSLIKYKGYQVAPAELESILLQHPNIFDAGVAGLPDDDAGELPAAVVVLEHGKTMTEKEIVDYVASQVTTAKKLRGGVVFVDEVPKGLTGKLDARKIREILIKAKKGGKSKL
Sequence of Dual specificity protein kinase CLK4 (Q9HAZ1 whole entry): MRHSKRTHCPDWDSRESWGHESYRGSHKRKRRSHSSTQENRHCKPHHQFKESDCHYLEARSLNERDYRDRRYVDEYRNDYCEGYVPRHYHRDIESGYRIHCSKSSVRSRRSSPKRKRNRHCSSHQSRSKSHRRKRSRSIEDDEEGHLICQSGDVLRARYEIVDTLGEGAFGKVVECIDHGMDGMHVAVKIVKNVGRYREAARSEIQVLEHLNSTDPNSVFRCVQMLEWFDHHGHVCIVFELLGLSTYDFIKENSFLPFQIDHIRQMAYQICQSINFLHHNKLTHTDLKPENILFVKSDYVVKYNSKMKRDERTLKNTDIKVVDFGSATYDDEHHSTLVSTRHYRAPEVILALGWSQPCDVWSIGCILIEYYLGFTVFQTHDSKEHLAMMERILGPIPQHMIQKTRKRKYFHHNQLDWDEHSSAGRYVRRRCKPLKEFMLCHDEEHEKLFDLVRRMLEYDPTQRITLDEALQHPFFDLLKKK
Sequence of Nonstructural protein 1 (Q194T2 whole entry): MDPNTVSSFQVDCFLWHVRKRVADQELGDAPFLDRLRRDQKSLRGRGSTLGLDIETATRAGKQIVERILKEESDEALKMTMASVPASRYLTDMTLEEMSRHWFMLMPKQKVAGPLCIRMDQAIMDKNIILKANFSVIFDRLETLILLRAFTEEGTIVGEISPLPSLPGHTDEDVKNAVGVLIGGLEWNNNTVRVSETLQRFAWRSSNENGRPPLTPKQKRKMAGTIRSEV
Sequence of Serine/threonine-protein kinase PAK 4 (O96013 whole entry): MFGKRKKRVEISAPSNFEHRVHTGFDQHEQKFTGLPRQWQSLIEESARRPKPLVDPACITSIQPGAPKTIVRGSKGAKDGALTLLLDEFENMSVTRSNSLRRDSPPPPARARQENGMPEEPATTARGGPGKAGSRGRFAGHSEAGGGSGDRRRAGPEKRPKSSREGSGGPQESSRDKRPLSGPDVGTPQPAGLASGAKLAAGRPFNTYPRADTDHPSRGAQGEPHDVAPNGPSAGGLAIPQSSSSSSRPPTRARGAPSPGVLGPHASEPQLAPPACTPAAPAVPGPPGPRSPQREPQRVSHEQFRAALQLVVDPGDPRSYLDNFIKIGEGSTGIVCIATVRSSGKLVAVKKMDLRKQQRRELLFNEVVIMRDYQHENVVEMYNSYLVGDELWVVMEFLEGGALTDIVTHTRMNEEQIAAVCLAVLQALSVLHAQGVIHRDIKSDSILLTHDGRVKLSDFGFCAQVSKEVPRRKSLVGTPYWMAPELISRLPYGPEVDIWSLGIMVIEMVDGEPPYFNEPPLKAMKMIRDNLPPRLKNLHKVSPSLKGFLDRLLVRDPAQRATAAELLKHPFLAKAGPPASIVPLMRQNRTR
Sequence of Platelet-derived growth factor receptor alpha (P16234 whole entry): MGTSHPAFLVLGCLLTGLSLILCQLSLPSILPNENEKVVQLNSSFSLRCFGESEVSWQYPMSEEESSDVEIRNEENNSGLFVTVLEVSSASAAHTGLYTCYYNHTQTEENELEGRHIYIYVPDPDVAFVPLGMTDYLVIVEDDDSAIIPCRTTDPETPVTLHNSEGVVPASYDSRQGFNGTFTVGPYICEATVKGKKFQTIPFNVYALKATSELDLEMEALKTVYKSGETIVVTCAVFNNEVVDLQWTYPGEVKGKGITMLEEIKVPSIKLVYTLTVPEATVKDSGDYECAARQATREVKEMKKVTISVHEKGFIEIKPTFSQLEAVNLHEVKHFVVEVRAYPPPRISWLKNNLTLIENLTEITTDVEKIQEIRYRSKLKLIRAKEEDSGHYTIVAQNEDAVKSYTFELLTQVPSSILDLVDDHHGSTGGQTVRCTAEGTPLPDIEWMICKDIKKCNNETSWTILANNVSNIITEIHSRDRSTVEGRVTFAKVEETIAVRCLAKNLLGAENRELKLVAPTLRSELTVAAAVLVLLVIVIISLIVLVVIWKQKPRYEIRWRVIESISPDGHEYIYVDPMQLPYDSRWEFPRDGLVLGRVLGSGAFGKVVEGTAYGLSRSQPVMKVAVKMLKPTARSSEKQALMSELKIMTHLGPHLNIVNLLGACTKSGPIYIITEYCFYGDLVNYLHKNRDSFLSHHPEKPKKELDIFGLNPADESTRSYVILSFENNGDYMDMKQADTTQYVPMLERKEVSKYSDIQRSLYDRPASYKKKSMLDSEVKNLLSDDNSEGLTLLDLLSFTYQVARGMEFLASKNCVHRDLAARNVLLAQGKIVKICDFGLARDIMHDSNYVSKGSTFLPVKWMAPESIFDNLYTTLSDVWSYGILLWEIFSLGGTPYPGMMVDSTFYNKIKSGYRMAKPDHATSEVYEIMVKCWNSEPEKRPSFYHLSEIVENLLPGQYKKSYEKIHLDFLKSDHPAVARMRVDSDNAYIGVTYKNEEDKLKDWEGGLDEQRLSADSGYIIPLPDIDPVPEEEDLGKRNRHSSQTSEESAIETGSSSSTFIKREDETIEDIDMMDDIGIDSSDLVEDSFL
Sequence of Fibroblast growth factor receptor 1 (P11362 whole entry): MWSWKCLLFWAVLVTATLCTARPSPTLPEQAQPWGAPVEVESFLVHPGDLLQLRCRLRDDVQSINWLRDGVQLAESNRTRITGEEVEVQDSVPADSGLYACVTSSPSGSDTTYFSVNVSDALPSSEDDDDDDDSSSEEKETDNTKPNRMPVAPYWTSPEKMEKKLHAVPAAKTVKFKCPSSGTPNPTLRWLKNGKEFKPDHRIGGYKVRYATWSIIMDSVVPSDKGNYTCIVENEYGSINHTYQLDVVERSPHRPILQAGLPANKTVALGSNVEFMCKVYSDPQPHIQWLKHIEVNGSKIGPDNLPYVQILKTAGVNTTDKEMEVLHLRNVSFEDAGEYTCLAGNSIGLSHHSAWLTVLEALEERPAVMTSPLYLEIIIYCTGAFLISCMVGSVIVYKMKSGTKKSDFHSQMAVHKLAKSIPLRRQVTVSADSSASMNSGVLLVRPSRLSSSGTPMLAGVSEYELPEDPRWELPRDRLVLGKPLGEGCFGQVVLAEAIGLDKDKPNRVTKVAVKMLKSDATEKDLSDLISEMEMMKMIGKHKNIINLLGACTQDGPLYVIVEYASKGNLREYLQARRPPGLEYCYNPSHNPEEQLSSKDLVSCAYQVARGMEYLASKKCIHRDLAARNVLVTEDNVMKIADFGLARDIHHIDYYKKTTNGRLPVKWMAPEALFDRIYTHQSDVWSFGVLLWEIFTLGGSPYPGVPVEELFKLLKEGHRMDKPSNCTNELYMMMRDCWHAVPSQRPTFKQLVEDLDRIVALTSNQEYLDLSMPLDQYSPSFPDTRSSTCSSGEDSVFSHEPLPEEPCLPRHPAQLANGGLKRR
Sequence of Dual specificity mitogen-activated protein kinase kinase 2 (P36507 whole entry): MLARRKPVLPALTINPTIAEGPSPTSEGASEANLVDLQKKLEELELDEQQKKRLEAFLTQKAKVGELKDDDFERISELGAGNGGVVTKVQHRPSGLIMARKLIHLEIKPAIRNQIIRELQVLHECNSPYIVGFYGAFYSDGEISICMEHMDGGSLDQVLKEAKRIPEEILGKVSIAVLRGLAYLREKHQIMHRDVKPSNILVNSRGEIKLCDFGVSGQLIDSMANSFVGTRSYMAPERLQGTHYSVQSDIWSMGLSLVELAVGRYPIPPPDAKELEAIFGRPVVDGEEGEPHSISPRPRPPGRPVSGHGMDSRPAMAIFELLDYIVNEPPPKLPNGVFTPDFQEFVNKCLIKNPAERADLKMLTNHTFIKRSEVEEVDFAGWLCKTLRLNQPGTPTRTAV
Sequence of Dual specificity mitogen-activated protein kinase kinase 1 (Q02750 whole entry): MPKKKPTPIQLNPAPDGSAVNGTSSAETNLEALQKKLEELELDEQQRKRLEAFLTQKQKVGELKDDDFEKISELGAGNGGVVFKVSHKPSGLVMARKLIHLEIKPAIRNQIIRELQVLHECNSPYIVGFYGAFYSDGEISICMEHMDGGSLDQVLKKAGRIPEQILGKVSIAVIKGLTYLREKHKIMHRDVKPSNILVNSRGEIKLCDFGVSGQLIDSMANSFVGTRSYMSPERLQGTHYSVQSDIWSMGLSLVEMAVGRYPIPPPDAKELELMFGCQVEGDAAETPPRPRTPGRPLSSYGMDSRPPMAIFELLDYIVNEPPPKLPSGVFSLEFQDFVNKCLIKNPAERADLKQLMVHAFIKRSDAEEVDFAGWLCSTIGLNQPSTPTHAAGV
Sequence of Aurora kinase B (Q96GD4 whole entry): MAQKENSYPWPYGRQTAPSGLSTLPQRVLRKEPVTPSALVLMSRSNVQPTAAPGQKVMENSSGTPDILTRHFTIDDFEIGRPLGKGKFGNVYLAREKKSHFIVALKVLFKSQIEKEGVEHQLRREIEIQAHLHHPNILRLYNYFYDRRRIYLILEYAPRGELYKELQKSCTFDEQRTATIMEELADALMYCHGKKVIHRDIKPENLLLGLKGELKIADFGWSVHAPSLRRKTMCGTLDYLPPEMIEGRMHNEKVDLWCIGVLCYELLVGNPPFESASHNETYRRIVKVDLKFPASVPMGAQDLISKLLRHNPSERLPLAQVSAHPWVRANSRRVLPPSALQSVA

With `COc1ccc(Oc2c(Cl)cnn(Cc3ccccc3OC)c2=O)cc1` as the compound, how does the IC50 [1] read?
The IC50 was 6.63 µM (active).

Which AC50 [2] does the source give for `Cc1ccc(C(=O)O/N=C(\N)c2ccccn2)cc1` here?
Its AC50 is 0.06 µM (active).

What about the AC50 [3] of the same compound?
The AC50 was 0.244 µM (active).

And the EC50 [4]?
Its EC50 is 1.6 µM (active).

What about the EC50 [5] of the same compound?
Its EC50 is 0.994 µM (active).

What about the AC50 [6] of the same compound?
The AC50 was 29.9 µM (active).

And the AC50 [7]?
The AC50 was 15.5 µM (active).

What about the AC50 [8] of the same compound?
The AC50 was 39 µM (active).

And the AC50 [9]?
The AC50 was 0.731 µM (active).

Which results are given for `COc1cccc2c1C(=O)c1c(O)c3c(c(O)c1C2=O)CC(O)(C(C)=NO)CC3OC1CC(N)C(O)C(C)O1` (centres undefined)?
AC50 [10]: 16.9 µM (active); IC50 [11]: 21.7 µM (active); AC50 [12]: 0.406 µM (active); IC50 [13]: 32 µM (active)

With `Nc1ncnc2c1N=C(c1ccccc1)CCN2` as the compound, how does the Ki [14] read?
The Ki was 25.1 µM (active).

And the Ki [15]?
Its Ki is 15.8 µM (active).

What about the Ki [16] of the same compound?
The Ki was 6.31 µM (active).

What about the Ki [17] of the same compound?
The Ki was 31.6 µM (active).

What about the Ki [18] of the same compound?
Its Ki is 39.8 µM (active).

And the Ki [19]?
The Ki was 12.6 µM (active).

And the Ki [20]?
The Ki was 25.1 µM (active).

What about the Ki [21] of the same compound?
Its Ki is 39.8 µM (active).

And the Ki [22]?
The Ki was 25.1 µM (active).

And the Ki [23]?
The Ki was 63.1 µM (active).

And the Ki [24]?
Its Ki is 10 µM (active).

What about the Ki [25] of the same compound?
The Ki was 20 µM (active).

What about the Ki [26] of the same compound?
The Ki was 5.01 µM (active).

And the Ki [27]?
The Ki was 3.16 µM (active).

What about the Ki [28] of the same compound?
The Ki was 12.6 µM (active).

And the Ki [29]?
Its Ki is 2 µM (active).

What about the Ki [30] of the same compound?
The Ki was 7.94 µM (active).

What about the Ki [31] of the same compound?
The Ki was 20 µM (active).

And the Ki [32]?
Its Ki is 12.6 µM (active).

What about the Ki [33] of the same compound?
Its Ki is 10 µM (active).

And the Ki [34]?
Its Ki is 100 µM (active).

And the Ki [35]?
The Ki was 12.6 µM (active).

And the Ki [36]?
The Ki was 3.98 µM (active).

And the Ki [37]?
The Ki was 63.1 µM (active).

What about the Ki [38] of the same compound?
Its Ki is 2 µM (active).

And the Ki [39]?
Its Ki is 39.8 µM (active).

And the Ki [40]?
The Ki was > 100 µM (inactive).

What about the Ki [41] of the same compound?
The Ki was 2 µM (active).

And the Ki [42]?
Its Ki is 12.6 µM (active).

And the Ki [43]?
Its Ki is 63.1 µM (active).

What about the Ki [44] of the same compound?
Its Ki is 3.98 µM (active).

And the Ki [45]?
Its Ki is 100 µM (active).

What about the Ki [46] of the same compound?
The Ki was 31.6 µM (active).

What about the Ki [47] of the same compound?
Its Ki is 79.4 µM (active).

What about the Ki [48] of the same compound?
Its Ki is 79.4 µM (active).

What about the Ki [49] of the same compound?
The Ki was 1.58 µM (active).

What about the Ki [50] of the same compound?
The Ki was > 63.1 µM (inactive).

And the Ki [51]?
The Ki was 0.794 µM (active).

What about the Ki [52] of the same compound?
The Ki was 15.8 µM (active).

What about the Ki [53] of the same compound?
The Ki was 7.94 µM (active).

What about the Ki [54] of the same compound?
Its Ki is 5.01 µM (active).

What about the Ki [55] of the same compound?
The Ki was 15.8 µM (active).

What about the Ki [56] of the same compound?
The Ki was > 100 µM (inactive).

What about the Ki [57] of the same compound?
The Ki was 0.398 µM (active).

What about the Ki [58] of the same compound?
Its Ki is 10 µM (active).

What about the Ki [59] of the same compound?
Its Ki is 12.6 µM (active).

What about the Ki [60] of the same compound?
The Ki was 39.8 µM (active).

And the Ki [61]?
The Ki was 31.6 µM (active).

And the Ki [62]?
The Ki was 79.4 µM (active).

What about the Ki [63] of the same compound?
Its Ki is 2 µM (active).

What about the Ki [64] of the same compound?
Its Ki is 50.1 µM (active).
